PubChem BioAssay AID179 (DTP/NCI, 2004)
Active and inactive are the calls of the source.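 Rule for the calls: active = compounds giving half or more protection of infected cells from virus-caused growth loss, again on retest; inactive = the rest.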

System: CEM cells HIV-1 protection, formazan growth assay
Assay: NCI AIDS Antiviral Assay
Settings: for IC50: measured here: growth of uninfected CEM cells
Summary of the method: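 Five concentrations of each compound were applied to infected and uninfected human CEM cells. Protection from HIV-1 was judged from growth measured with a soluble formazan assay.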

Row | SMILES | EC50 | IC50 | outcome
1 | CSc1c(C)n([O-])c2cc(Cl)c(Cl)cc2[n+]1=O | > 100 µM | 2.82 µM | 
2 | O=[N+]([O-])c1cccc2nccc(NCC(O)CO)c12 (stereo not drawn) | > 200 µM | 6.17 µM | 
3 | CC(C)(NO)/C(=N\O)c1ccccc1 | > 200 µM | > 200 µM | 
4 | Oc1ccc(CCl)c2cccnc12 | > 562 µM | 10.2 µM | 
5 | COC(=O)[C@H](Cc1c[nH]c2ccccc12)NP(=O)(OC)OCC1OC(n2cc(C)c(=O)[nH]c2=O)CC1N=[N+]=[N-] (stereo partly drawn) | 69.2 µM | > 200 µM | 
6 | COc1ccc(/C=c2\sc3nnc(CCC(=O)Nc4cccc(C(F)(F)F)c4)n3c2=O)cc1 | > 7.59 µM | > 7.59 µM | 
7 | COc1ccc(S(=O)(=O)N(CC(=O)O)c2ccccc2)cc1 |  |  | inactive
8 | CC1C(c2ccccc2O)c2cc3c(cc2OC1N1CCCC1)OCO3 (stereo not drawn) |  |  | inactive
9 | Cc1cc(NS(=O)(=O)c2ccc(NC(=O)c3cccc4c(Nc5ccc(S(N)(=O)=O)cc5)c5ccccc5nc34)cc2)no1 | > 148 µM | > 148 µM | 
10 | Cc1ccc(SSCCCCCS(=O)O)cc1 |  |  | inactive
11 | COC(=O)CCC(=O)Nc1cc(Cl)ccc1Cl | > 468 µM | > 468 µM | 
12 | CC1Cc2c(nc3n(c2=O)CCCCC3)O1 (stereo not drawn) | > 407 µM | > 407 µM | 
13 | O=c1/c(=C/c2ccco2)sc2nc3ccccc3n12 | > 3.89 µM | > 3.89 µM | 
14 | O=c1c(-c2ccccc2)c(SCCO)n(-c2ccccc2)c(=S)n1-c1ccccc1 | > 200 µM | > 200 µM | 
15 | O=C1/C(=C\c2cccc(Oc3ccccc3)c2)SC(c2ccccc2)N1c1ccccc1 (stereo not drawn) | > 20 µM | 0.0933 µM | 
16 | Cc1cn([C@H]2C[C@@H]3[C@@H](COC(CC[Se]C#N)N3O)O2)c(=O)[nH]c1=O (stereo partly drawn) | 3.98 µM | 28.8 µM | 
17 | COC1=C(OC)C(O)(c2ccccc2)C1=O (stereo not drawn) |  |  | inactive

Row | SMILES | EC50 | IC50 | outcome
18 | CCOC(=O)C1=C(C)/C(=C/c2[n-]c(C)c(C(=O)OCC)c2C)N=C1C.CCOC(=O)C1=C(C)/C(=C/c2[n-]c(C)c(C(=O)OCC)c2C)N=C1C.[Cu+2] | > 200 µM | > 200 µM | 
19 | CC#N.CC#N.COC(=O)[C@@H]1CCC(=O)[N-]1.COC(=O)[C@@H]1CCC(=O)[N-]1.COC(=O)[C@@H]1CCC(=O)[N-]1.COC(=O)[C@@H]1CCC(=O)[N-]1.[Rh+2].[Rh+2] | > 200 µM | > 200 µM | 
20 | CCCc1cc(=O)[nH]c2c3c(c4c(c12)OC(C)(C)C=C4)O[C@H](C)[C@@H](C)[C@@H]3O | 0.12 µM | 2 µM | 
21 | Fc1c(F)c(F)c(S)c(F)c1F |  |  | active
22 | COc1cc(CC2C(=O)OCC2C(=O)c2ccc3c(c2)OCO3)cc(OC)c1OC (stereo not drawn) | > 40.7 µM | > 40.7 µM | 
23 | c1ccc([P+](CCCCCCCCCC[P+](c2ccccc2)(c2ccccc2)c2ccccc2)(c2ccccc2)c2ccccc2)cc1 | > 200 µM | 0.589 µM | 
24 | CCOC(=O)c1cnc2n(c1=O)[C@H]1CCCC[C@@H]1N2 | > 200 µM | > 200 µM | 
25 | CC1=CC(=O)N2[C@H](OC[C@@H]2C(C)C)O1 | > 1260 µM | > 1260 µM | 
26 | CCOC(=O)C1(C)CCCc2sc(N)c(C#N)c21 (stereo not drawn) | > 200 µM | > 200 µM | 
27 | N/N=C(/CC(O)(C(F)(F)F)C(F)(F)F)c1ccccc1 | > 200 µM | 112 µM | 
28 | Cc1cc(C)c(C2=[N+]([O-])ON3CCc4ccccc4C23)c(C)c1 (stereo not drawn) | > 115 µM | > 115 µM | 
29 | COc1nc(=O)n(C)cc1B(O)O | > 200 µM | 32.4 µM | 
30 | CCOC(=O)c1[nH]n(-c2ccccc2)c(=O)c1/C=N/C(=S)Nc1ccc(Cl)cc1Cl | > 200 µM | > 200 µM | 
31 | COc1ccc(NC(=O)CC(=O)NN)cc1 | > 200 µM | > 200 µM | 
32 | CC(C)CCC[C@@H](C)C1CCC2[C@@H]3CC=C4C[C@@H](OP(=O)(O)O)CC[C@]4(C)C3CC[C@@]21C (stereo partly drawn) | > 28.2 µM | > 28.2 µM | 
33 | CCOC(=O)NC(Nc1ccc(S(=O)(=O)Nc2ccc(OC)nn2)cc1)(C(F)(F)F)C(F)(F)F | > 200 µM | > 200 µM | 
34 | Nc1ccn(C2CCC3(CO)CC23)c(=O)n1 (stereo not drawn) | > 50.1 µM | > 50.1 µM | 
